Biological target: α1-adrenergic receptor
Test: α1-adrenergic receptor binding (3H-prazosin displacement, rat cortex membranes)
Set-up: species or system rat (Wistar)
Conditions: 3H-prazosin 0.05 nM, 25° C., 20 min
Source text: Charles River male Wistar (virus-free) rats were group housed for approximately one week and given food and water (Wayne Lab Blox) ad libitum. Animals were exposed to equal hours(12--12) of dark and light and used at a weight range of 150-280 g (8 to 10 weeks of age). Rats were sacrificed by cervical dislocation and their brains were rapidly excised and immediately placed on ice. The cortex was removed, weighed, and used immediately or frozen on dry ice.
The frozen tissue was homogenized in 20 volumes of HEPES buffered sucrose (10 mM HEPES, 300 mM sucrose, pH 7.5) using a motor driven Teflon pestle/glass homogenizer (all homogenates and solutions were maintained at 4-8° C.). The homogenate was centrifuged at 1000×g for 10 minutes, and the supernatant was recentrifuged at 48,000×g for 10 min. […]
The samples were incubated in a 25° C. water bath for 20 min, harvested on a Brandel Cell Harvester on to Wallac filtermat-B sheets (96 sample format), washed three times with 2 mL cold HEPES-buffer (10 mM, pH 7.5), and dried in a microwave oven. To each sample area 80 ul of Betaplate Scint scintillation fluid (LKB) was added and analyzed on a LKB (Wallac) 1205 BetaPlate liquid scintillation counter.
The data were used to calculate either the % inhibition compared to control binding (a single concentration of test compound is evaluated) or a Ki value (a range of concentrations are tested). […]

**Q.** With CN1CC2CCc3[nH]c4ccccc4c3C2C1 (single isomer, unassigned) [Compound 58] as the compound, how does the Ki read?
**A.** 0.061 µM

— patent US6063803A, “Octahydropyrrolo-[3,4-c]carbazoles useful as analgesic agents” (Ortho-McNeil Pharmaceutical, Inc., priority 1999, dated 2000)
